# Measured values published in ChEMBL document CHEMBL4725351, “Cyclic Derivative of Host-Defense Peptide IDR-1018 Improves Proteolytic Stability, Suppresses Inflammation, and Enhances In Vivo Activity” (J Med Chem, 2020).
# The source made the active and inactive calls. The rule behind the calls is not given here. Where a SMILES comes first, the peptide text is derived from it. Bridges are numbered along the chain shown (N, C = ends).
# Legend:
# Staphylococcus aureus [1] = experiment: Antibiofilm activity against 24 hrs preformed methicillin-resistant Staphylococcus aureus SAP0017 biofilm assessed as reduction in biofilm viability at 7.2 to 30.3 uM by TTC assay relative to control; type: functional; settings: dose microM 7.2-30.3
# Staphylococcus aureus [2] = experiment: Antibiofilm activity against 24 hrs preformed methicillin-resistant Staphylococcus aureus USA300 LAC biofilm assessed as reduction in biofilm viability at 7.2 to 30.3 uM by TTC assay relative to control; type: functional; settings: dose microM 7.2-30.3
# Staphylococcus aureus [3] = experiment: Antibiofilm activity against 24 hrs preformed methicillin-resistant Staphylococcus aureus SAP0017 biofilm assessed as reduction in biofilm viability at 100 ug/ml by TTC assay; type: functional, organism-based; settings: dose 100.0 µg/ml
# Staphylococcus aureus [4] = experiment: Antibiofilm activity against 24 hrs preformed methicillin-resistant Staphylococcus aureus USA300 LAC biofilm assessed as reduction in biofilm viability at 100 ug/ml by TTC assay; type: functional, organism-based; settings: dose 100.0 µg/ml
Molecule,Activity (Staphylococcus aureus [1]) [%],Activity (Staphylococcus aureus [2]) [%],Activity (Staphylococcus aureus [3]),Activity (Staphylococcus aureus [4])
H-VRLIVAVRIWRR-NH2,70,70,–,–
CN[C@H](CC(C)C)C(=O)N[C@H]1C(=O)N[C@@H](CC(N)=O)C(=O)N[C@H]2C(=O)N[C@H]3C(=O)N[C@H](C(=O)N[C@H](C(=O)O)c4cc(O)cc(O)c4-c4cc3ccc4O)[C@H](O)c3ccc(c(Cl)c3)Oc3cc2cc(c3O[C@@H]2O[C@H](CO)[C@@H](O)[C@H](O)[C@H]2O[C@H]2C[C@](C)(N)[C@H](O)[C@H](C)O2)Oc2ccc(cc2Cl)[C@H]1O [VANCOMYCIN],–,–,inactive,inactive
CC[C@H](C)[C@@H]1NC(=O)[C@H](CCCNC(=N)N)NC(=O)[C@H](C(C)C)NC(=O)[C@H](C)NC(=O)[C@H](C(C)C)NC(=O)[C@H]([C@@H](C)CC)NC(=O)[C@H](CC(C)C)NC(=O)[C@H](CCCNC(=N)N)NC(=O)[C@H](C(C)C)NC(=O)CC[C@@H](C(N)=O)NC(=O)[C@H](CCCNC(=N)N)NC(=O)[C@H](CCCNC(=N)N)NC(=O)[C@H](Cc2c[nH]c3ccccc23)NC1=O (VRLIVAVRIWRRE-NH2; lactam N-13),70,70,–,–
